Measurements taken from US20250368616A1, “NITROGEN-CONTAINING HETEROCYCLIC DERIVATIVE INHIBITOR, AND PREPARATION METHOD THEREFOR AND USE THEREOF” (SHANGHAI HANSOH BIOMEDICAL CO., LTD., priority 2021, published 2025).

Key:
[1] = system: Ba/F3 EGFR Del19/T790M/C797S cells; assay: Cell proliferation inhibition assay (Cell Titer-Glo), Ba/F3 EGFR Del19/T790M/C797S; format: cell-based; settings: 72 hours, read-out: Ba/F3 EGFR Del19_T790M_C797S IC50
Excerpt: (§1) Test Example 2: Cell Proliferation Inhibition Assay
(§2) Experimental objective: The objective of this test example is to test the inhibitory activity of compounds on the proliferation of different EGFR C797S drug-resistant mutant cell lines Ba/F3 EGFR Del19/T790M/C797S, Ba/F3 EGFR L858R/T790M/C797S, and Ba/F3 EGFR Del19/C797S.
(§3) • Ba/F3 EGFR Del19/T790M/C797S cells were purchased from KYinno Biotechnology Co., Ltd.; • Ba/F3 EGFR Del19/C797S cells were purchased from CoBioer Biosciences Co., Ltd.; • Ba/F3 EGFR L858R/T790M/C797S cells were purchased from CoBioer Biosciences Co., Ltd.; • Cell Titer-Glo was purchased from Promega, with a catalog number of G7573; • RPMI 1640 was purchased from Gibco, with a catalog number of 22400089; • FBS was purchased from Gibco, with a catalog number of 10091148; • cell culture plates were purchased from Corning, with a catalog number of 3610.
(§4) The inhibitory activity of the compound on the proliferation of different EGFR C797S drug-resistant mutant cell lines was detected using the Cell Titer-Glo method. The different cell lines were cultured in RPMI 1640 complete culture medium containing 10% FBS under conditions of 37° C. and 5% CO2, the cells were collected by centrifugation when growing to a certain density, and adjusted to appropriate cell density after counting, the cells were spread on a white 96-well plate at 90 μL/well, and cultured in a 37° C., 5% CO2 incubator overnight, prepared compound solutions of different concentrations were added at 10 μL/well, corresponding solvent controls were set, and all wells were cultured in a 37° C., 5% CO2 incubator for 72 hours, 50 μL of CellTiter-Glo solution was added to each well, shook and mixed evenly, and incubated in the dark for 10 minutes, and a BioTek Synergy H1 microplate reader was used for reading.
(§5) The luminescence signal value was used to calculate the inhibition rate. Graphpad Prism software was used to fit the concentration and inhibition rate to a nonlinear regression curve, so as to obtain the IC50 value, as shown in Tables 3 and 4 below for details.

[2] = system: Ba/F3 EGFR Del19/C797S cells; assay: Cell proliferation inhibition assay (Cell Titer-Glo), Ba/F3 EGFR Del19/C797S; format: cell-based; settings: 72 hours, read-out: Ba/F3 EGFR Del19_C797S IC50
Excerpt: as §1, §2, §3, §4, §5

[3] = biological target: EGFR del19/T790M/C797S mutant kinase (Homo sapiens, UniProt P00533, C797S/DEL746-750/T790M); assay: HTRF kinase assay, EGFR del19/T790M/C797S mutant kinase; format: biochemical; settings: 120 minutes at room temperature
Chain of EGFR del19/T790M/C797S mutant kinase (P00533 with tags, fused parts or gaps C797S/DEL746-750/T790M limits assumed): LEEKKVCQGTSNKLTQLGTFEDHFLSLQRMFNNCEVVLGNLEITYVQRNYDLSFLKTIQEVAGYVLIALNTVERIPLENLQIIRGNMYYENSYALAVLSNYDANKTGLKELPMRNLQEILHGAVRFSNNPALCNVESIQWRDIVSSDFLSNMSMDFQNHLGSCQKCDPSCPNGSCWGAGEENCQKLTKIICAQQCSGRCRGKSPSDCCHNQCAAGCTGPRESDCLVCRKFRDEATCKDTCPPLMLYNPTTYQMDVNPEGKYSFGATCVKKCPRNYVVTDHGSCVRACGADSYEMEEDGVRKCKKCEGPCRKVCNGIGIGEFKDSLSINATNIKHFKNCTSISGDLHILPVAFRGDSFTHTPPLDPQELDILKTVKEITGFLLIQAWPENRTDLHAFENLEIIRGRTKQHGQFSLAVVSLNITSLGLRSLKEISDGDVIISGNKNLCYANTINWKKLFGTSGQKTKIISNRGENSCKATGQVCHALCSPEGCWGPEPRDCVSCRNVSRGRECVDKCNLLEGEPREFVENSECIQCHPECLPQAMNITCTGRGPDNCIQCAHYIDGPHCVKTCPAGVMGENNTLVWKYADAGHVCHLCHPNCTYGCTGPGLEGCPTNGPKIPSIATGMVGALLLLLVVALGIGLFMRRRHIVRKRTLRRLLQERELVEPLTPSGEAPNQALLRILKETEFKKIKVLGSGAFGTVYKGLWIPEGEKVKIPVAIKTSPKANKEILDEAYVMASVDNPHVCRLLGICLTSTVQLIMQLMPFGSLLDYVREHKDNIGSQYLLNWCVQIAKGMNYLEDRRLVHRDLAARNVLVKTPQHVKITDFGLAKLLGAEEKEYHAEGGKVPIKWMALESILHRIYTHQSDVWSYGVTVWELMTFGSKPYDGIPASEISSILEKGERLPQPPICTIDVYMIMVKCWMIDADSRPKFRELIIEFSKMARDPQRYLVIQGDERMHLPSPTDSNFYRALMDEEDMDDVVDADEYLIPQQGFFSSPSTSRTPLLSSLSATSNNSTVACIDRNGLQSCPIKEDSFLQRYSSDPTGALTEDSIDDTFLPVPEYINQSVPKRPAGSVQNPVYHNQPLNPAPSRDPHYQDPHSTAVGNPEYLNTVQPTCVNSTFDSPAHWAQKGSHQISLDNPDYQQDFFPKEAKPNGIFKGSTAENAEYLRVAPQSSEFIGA
Excerpt: Test Example 1. Determination of the Inhibitory Effect of the Compounds of the Present Invention on the Activity of EGFR del19/T790M/C797S and EGFR L858R/T790M/C797S Mutant Kinases
Experimental objective: The objective of this test example is to test the inhibitory activity of the compounds on the activity of EGFR del19/T790M/C797S and EGFR L858R/T790M/C797S mutant kinases.
Experimental method: This experiment used Cisbio's HTRF kinase assay method (Cisbio #62TK0PEB), wherein a catalytic reaction occurred between the substrate polypeptide TK and ATP in the presence of the tyrosine kinase with EGFR del19/T790M/C797S or EGFR L858R/T790M/C797S mutation, the substance was phosphorylated, and the activity of the kinase was characterized by measuring the content of the phosphorylated substrate generated during the reaction, and the half inhibitory concentration IC50 of the compound on the activity of EGFR del19/T790M/C797S or EGFR L858R/T790M/C797S mutant kinase was obtained.
Specific Experimental Operations were as Follows: • the kinase reaction was carried out in a white 384-well plate (Perkin Elmer #6008280), and 1-5 μL of compounds of different concentrations which were diluted with 1% DMSO-containing ddH2O were added; to the positive control wells were added 1-5 μL of 1% DMSO-containing ddH2O, followed by 1-5 μL of 0.5-5 nM 4×EGFR del19/T790M/C797S or EGFR L858R/T790M/C797S mutant kinase solution which was diluted with Dilution buffer (5× kinase buffer, MgCl2 6.65 Mm, MnCl2 1.33 mM, DTT 1.33 mM); to the negative control wells were added 1-5 μL of Dilution buffer; to all the wells were added 1-5 μL of 4 μM 4× substrate TK solution which was prepared with 10× Dilution buffer, and finally added 1-5 μL of 24 μM 4×ATP solution which was diluted with Dilution buffer to start the reaction; after reacting at room temperature for 120 minutes, 10 μL of detection solution (TK antibody 16 nM, XL665 0.5 μM) was added to each well, same was reacted at room temperature in the dark for 20 minutes, and then the […] was detected using a BioTek Synergy H1 microplate reader.
The percent inhibition data for compound-treated wells was calculated according to the positive control wells (DMSO control wells) and negative control wells (no kinase added) on the plate {% inhibition rate=100−[(test compound value−negative control value)]/(positive control value−negative control value)×100}. GraphPad prism was used to fit different concentrations and corresponding percent inhibition rate data to a 4-parameter nonlinear logistic equation to calculate IC50 values.

IC50 [1] | IC50 [2] | IC50 [3] | SMILES
7.2 nM | 24 nM |  | CC(C)c1ccc(N2C[C@H](CS(C)(=O)=O)[C@H]2C)c2cnc(Nc3ccnc(-c4cn(CCO)nc4Cl)n3)cc12 [Example 11, 2-(3-chloro-4-(4-((5-isopropyl-8-((2R,3S)-2-methyl-3-((methanesulfonyl)methyl)azabut-1-yl)isoquinolin-3-yl)amino)pyrimidin-2-yl)-1H-pyrazol-1-yl)ethanol]
 |  | 9.1 nM | CC(C)c1ccc(N2C[C@H](CS(C)(=O)=O)[C@H]2C)c2cnc(Nc3ccnc(-c4cnn(CC5(CC#N)CC5)c4)n3)cc12 [Example 18, 2-(1-((4-(4-((5-isopropyl-8-((2R,3S)-2-methyl-3-((methanesulfonyl)methyl)azetidin-1-yl)isoquinolin-3-yl)amino)pyrimidin-2-yl)-1H-pyrazol-1-yl)methyl)cyclopropyl)acetonitrile]
14 nM | 54 nM |  | CC(C)c1ccc(N2C[C@H](CS(C)(=O)=O)[C@H]2C)c2cnc(Nc3ccnc(-c4cnn(C(F)F)c4)n3)cc12 [Example 25, N-(2-(1-(difluoromethyl)-1H-pyrazol-4-yl)pyrimidin-4-yl)-5-isopropyl-8-((2R,3S)-2-methyl-3-((methanesulfonyl)methyl)azetidin-1-yl)isoquinolin-3-amine]
 | 85 nM | 4.2 nM | CC(C)c1ccc(N2C[C@H](CS(C)(=O)=O)[C@H]2C)c2cnc(Nc3ccnc(-c4cnn(CCO)c4)n3)cc12 [Example 48, 2-(4-(4-((5-isopropyl-8-((2R,3S)-2-methyl-3-((methanesulfonyl)methyl)azetidin-1-yl)isoquinolin-3-yl)amino)pyrimidin-2-yl)-1H-pyrazol-1-yl)ethan-1-ol]
 | 32 nM | 7.5 nM | CC(C)c1ccc(N2C[C@H](CS(C)(=O)=O)[C@H]2C)c2cnc(Nc3ccnc(-c4cncs4)n3)cc12 [Example 54, 5-isopropyl-8-((2R,3S)-2-methyl-3-((methanesulfonyl)methyl)azetidin-1-yl)-N-(2-(thiazol-5-yl)pyrimidin-4-yl)isoquinolin-3-amine]
 | 20 nM |  | CC(C)c1ccc(N2C[C@H](CS(C)(=O)=O)[C@H]2C)c2cnc(Nc3ccnc(-c4cn(CCC#N)nc4Cl)n3)cc12 [Example 67, 3-(3-chloro-4-(4-((5-isopropyl-8-((2R,3S)-2-methyl-3-((methanesulfonyl)methyl)azetidin-1-yl)isoquinolin-3-yl)amino)pyrimidin-2-yl)-1H-pyrazol-1-yl)propanenitrile]
 | 21 nM |  | CC(C)c1ccc(N2CC(N3CCCS3(=O)=O)C2)c2cnc(Nc3ccnc(-c4cn(C)nc4Cl)n3)cc12 [Example 68, 2-(1-(3-((2-(3-chloro-1-methyl-1H-pyrazol-4-yl)pyrimidin-4-yl)amino)-5-isopropylisoquinolin-8-yl)azetidin-3-yl)isothiazolidine 1,1-dioxide]
 | 51 nM |  | Cc1nn(C)cc1-c1nccc(Nc2cc3c(C(C)C)ccc(N4CC(N5CCCS5(=O)=O)C4)c3cn2)n1 [Example 69, 2-(1-(3-((2-(1,3-dimethyl-1H-pyrazol-4-yl)pyrimidin-4-yl)amino)-5-isopropylisoquinolin-8-yl)azetidin-3-yl)isothiazolidine 1,1-dioxide]
 | 96 nM |  | CC(C)c1ccc(N2C[C@H](CS(C)(=O)=O)[C@H]2C)c2cnc(Nc3ccnc(-c4cn(CCN)nc4Cl)n3)cc12 [Example 71, N-(2-(1-(2-aminoethyl)-3-chloro-1H-pyrazol-4-yl)pyrimidin-4-yl)-5-isopropyl-8-((2R,3S)-2-methyl-3-((methanesulfonyl)methyl)azetidin-1-yl)isoquinolin-3-amine]
 | 77 nM |  | COC(=O)NC1CN(c2ccc(C(C)C)c3cc(Nc4ccnc(-c5cn(C)nc5Cl)n4)ncc23)C1 [Example 72, methyl (1-(3-((2-(3-chloro-1-methyl-1H-pyrazol-4-yl)pyrimidin-4-yl)amino)-5-isopropylisoquinolin-8-yl)azetidin-3-yl)carbamate]
 | 28 nM |  | CC(C)c1ccc(N2CC(C[N+](=O)[O-])C2)c2cnc(Nc3ccnc(-c4cn(C)nc4Cl)n3)cc12 [Example 75, N-(2-(3-chloro-1-methyl-1H-pyrazol-4-yl)pyrimidin-4-yl)-5-isopropyl-8-(3-(nitromethyl)azetidin-1-yl)isoquinolin-3-amine]
 | 63 nM |  | CC(C)c1ccc(N2CC(C[S+](C)[O-])C2)c2cnc(Nc3ccnc(-c4cn(C)nc4Cl)n3)cc12 (stereo not drawn) [Example 76, N-(2-(3-chloro-1-methyl-H-pyrazol-4-yl)pyrimidin-4-yl)-5-isopropyl-8-(3-((methylsulfinyl<sulfenyl>)methyl)azetidin-1-yl)isoquinolin-3-amine]
 | 12 nM |  | Cc1nn(C)c(F)c1-c1nccc(Nc2cc3c(C(C)C)ccc(N4C[C@H](CS(C)(=O)=O)[C@H]4C)c3cn2)n1 [Example 77, N-(2-(5-fluoro-1,3-dimethyl-1H-pyrazol-4-yl)pyrimidin-4-yl)-5-isopropyl-8-((2R,3S)-2-methyl-3-((methanesulfonyl)methyl)azetidin-1-yl)isoquinolin-3-amine]
 | 50 nM |  | CC(C)c1ccc(N2C[C@H](CS(C)(=O)=O)[C@H]2C)c2cnc(Nc3ccnc(-c4cn(C5COC5)nc4Cl)n3)cc12 [Example 81, N-(2-(3-chloro-1-(oxetan-3-yl)-1H-pyrazol-4-yl)pyrimidin-4-yl)-5-isopropyl-8-((2R,3S)-2-methyl-3-((methanesulfonyl)methyl)azetidin-1-yl)isoquinolin-3-amine]
 | 33 nM |  | CC(C)c1ccc(N2C[C@H](CS(C)(=O)=O)[C@H]2C)c2cnc(Nc3ccnc(-c4cn(CC(O)CF)nc4Cl)n3)cc12 (stereo partly drawn) [Example 82, 1-(3-chloro-4-(4-((5-isopropyl-8-((2R,3S)-2-methyl-3-((methanesulfonyl)methyl)azetidin-1-yl)isoquinolin-3-yl)amino)pyrimidin-2-yl)-1H-pyrazol-1-yl)-3-fluoropropan-2-ol]
 | 74 nM |  | Cc1nn(C)cc1-c1nccc(Nc2cc3c(C(C)C)ccc(N4CC(CS(C)(=O)=NC#N)C4)c3cn2)n1 (stereo not drawn) [Example 83, N-(((1-(3-((2-(1,3-dimethyl-1H-pyrazol-4-yl)pyrimidin-4-yl)amino)-5-isopropylisoquinolin-8-yl)azetidin-3-yl)methyl)(methyl)(carbonyl)-l6-sulfanylidene)cyanamide]
 | 93 nM |  | CC(C)c1ccc(N2CC(N3C[C@@H](C)OC3=O)C2)c2cnc(Nc3ccnc(-c4cn(C)nc4Cl)n3)cc12 [Example 84, (R)-3-(1-(3-((2-(3-chloro-1-methyl-1H-pyrazol-4-yl)pyrimidin-4-yl)amino)-5-isopropylisoquinolin-8-yl)azetidin-3-yl)-5-methyloxazolidin-2-one]
